Source: BigSolDB 2.1

OC(Cc1ccccc1Cl)(Cn1[nH]cnc1=S)C1(Cl)CC1 (centres undefined)
solubility (mole fraction)
Conditions	in acetonitrile	in isopropanol	in methanol	in n-butanol	in n-propanol	in sec-butanol	in toluene
283.15 K	0.00629	0.0115	0.01	0.0147	0.0125	0.00735	0.00196
288.15 K	0.008	0.0142	0.0127	0.018	0.0161	0.00954	0.00287
293.15 K	0.0103	0.0176	0.0154	0.0215	0.0199	0.0124	0.00368
298.15 K	0.0126	0.0215	0.019	0.0268	0.0248	0.0152	0.00481
303.15 K	0.0171	0.0268	0.0232	0.0327	0.0305	0.0191	0.00574
308.15 K	0.0214	0.0331	0.0307	0.0417	0.0373	0.0259	0.00782
313.15 K	0.0254	0.0385	0.0371	0.0513	0.0465	0.0321	0.0101
